Assay results reported in patent publication US9913843B2, “Protein kinase C inhibitors and uses thereof” (Rigel Pharmaceuticals, Inc., priority 2012, dated 2018).
Like-named read-outs stand apart in the source and are kept apart here.

System: PKC mediated IL-2 production in human primary T cells
Test: IL-2 ELISA, human primary T cell, anti CD3+CD28+ (whole cell functional assay for PKC mediated IL-2 production)
Type: cell-based
Procedure, shortened: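 IL-2 in supernatants was quantified by ELISA after 24 h at 37 °C. Before stimulation with plate-coated anti-CD3 (1 μg/ml) and anti-CD28 (5 μg/ml), T cells expanded from PBMC were exposed to compound for 1 h; the counter-screen replaced antibodies with PMA 0.5 ng/ml and ionomycin 0.1 μM (final).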

[1] = 24 h, human primary T cells stimulated with anti-CD3 + anti-CD28, IL-2 by ELISA, read-out: IC50 for blocking IL-2 production
[2] = human primary T cells stimulated with anti-CD3 + anti-CD28, 24 h, IL-2 by ELISA, 8 pt, read-out: IL2 ELISA, Human primary T cell, anti-CD3 + CD28, 8 pt (IC50)

Row | IC50 [1] [µM] | IC50 [2] [µM] | Compound
1 | < 30 | 2.24 | COc1cc(Nc2ncc(OC)c(NC[C@@H]3CCCN4CCCC[C@H]34)n2)cc(-n2nnnc2C)c1 [Compound 78, N4-(((1S,9aR)-octahydro-1H-quinolizin-1-yl)methyl)-5-methoxy-N2-(3-methoxy-5-(5-methyl-1H-tetrazol-1-yl)phenyl)pyrimidine-2,4-diamine]
2 | < 30 | 0.702 | COc1cc(F)cc(Nc2ncc(F)c(NC[C@@H]3CCCN4CCCC[C@H]34)n2)c1 [Compound 21, 5-fluoro-N2-(3-fluoro-5-methoxyphenyl)-N4-(((1S,9aR)-octahydro-1H-quinolizin-1-yl)methyl)pyrimidine-2,4-diamine]
3 | < 30 | 10.7 | Cc1ccc(Nc2ncc(C(F)(F)F)c(NC[C@@H]3CCCN4CCCC[C@H]34)n2)cc1-n1cnnn1 [Compound 101, 5-(trifluoromethyl)-N4-(((1S,9aR)-octahydro-1H-quinolizin-1-yl)methyl)-N2-(4-methyl-3-(1H-tetrazol-1-yl)phenyl)pyrimidine-2,4-diamine]
4 | < 30 | 3.27 | COc1cnc(Nc2ccc(C)c(-n3cnnn3)c2)nc1NC[C@@H]1CCCN2CCCC[C@H]12 [Compound 73, N4-(((1S,9aR)-octahydro-1H-quinolizin-1-yl)methyl)-5-methoxy-N2-(4-methyl-3-(1H-tetrazol-1-yl)phenyl)pyrimidine-2,4-diamine]
5 | < 30 | 3.31 | CN(C)c1cnc(Nc2cc(-n3cnnn3)c(C3CC3)cc2F)nc1NC[C@@H]1CCCN2CCCC[C@H]12 [Compound 85, N2-(4-cyclopropyl-2-fluoro-5-(1H-tetrazol-1-yl)phenyl)-N4-(((1S,9aR)-octahydro-1H-quinolizin-1-yl)methyl)-N5,N5-dimethylpyrimidine-2,4,5-triamine]
6 | < 30 | 8.26 | CN(C)c1cnc(Nc2cc(-n3nnn(C)c3=O)c(C3CC3)cc2F)nc1NC[C@@H]1CCCN2CCCC[C@H]12 [Compound 87]
7 | < 30 | 0.141 | COc1cc(Nc2ncc(C#N)c(NC[C@@H]3CCCN4CCCC[C@H]34)n2)cc(OC)c1 [Compound 121, 4-(((1S,9aR)-octahydro-1H-quinolizin-1-yl)methylamino)-2-(3,5-dimethoxyphenylamino)pyrimidine-5-carbonitrile]
8 | < 30 | 12.6 | Cn1nnn(-c2cc(Nc3ncc(C(F)(F)F)c(NC[C@@H]4CCCN5CCCC[C@H]45)n3)c(F)cc2C2CC2)c1=O [Compound 102, 1-(5-(4-(((1S,9aR)-octahydro-1H-quinolizin-1-yl)methylamino)-5-(trifluoromethyl)pyrimidin-2-ylamino)-2-cyclopropyl-4-fluorophenyl)-4-methyl-1H-tetrazol-5(4H)-one]
9 | < 30 | 0.442 | COc1cc(Nc2nccc(NC[C@@H]3CCCN4CCCC[C@H]34)n2)cc(-n2nnnc2C)c1 [Compound 52, N4-(((1S,9aR)-octahydro-1H-quinolizin-1-yl)methyl)-N2-(3-methoxy-5-(5-methyl-1H-tetrazol-1-yl)phenyl)pyrimidine-2,4-diamine]
10 | < 30 | 0.649 | Cc1ccc(Nc2nccc(NC[C@@H]3CCCN4CCCC[C@H]34)n2)cc1-n1cnnn1 [Compound 47, N4-(((1S,9aR)-octahydro-1H-quinolizin-1-yl)methyl)-N2-(4-methyl-3-(1H-tetrazol-1-yl)phenyl)pyrimidine-2,4-diamine]
11 | < 30 | 0.0662 | C[C@H](O)COc1cc(F)c(Nc2ncc(C#N)c(NC[C@@H]3CCCN4CCCC[C@H]34)n2)cc1-n1nnn(C)c1=O [Compound 142, 2-((2-fluoro-4-((S)-2-hydroxypropoxy)-5-(4-methyl-5-oxo-4,5-dihydro-1H-tetrazol-1-yl)phenyl)amino)-4-((((1 S,9aR)-octahydro-2H-quinolizin-1-yl)methyl)amino)pyrimidine-5-carbonitrile]
12 | < 30 | 2.53 | N#Cc1cccc(Nc2nccc(NC[C@@H]3CCCN4CCCC[C@H]34)n2)c1 [Compound 53, 3-(4-(((1S,9aR)-octahydro-1H-quinolizin-1-yl)methylamino)pyrimidin-2-ylamino)benzonitrile]
13 | < 30 | 2.91 | COc1cnc(Nc2ccc(F)c(-n3nnnc3C)c2)nc1NC[C@@H]1CCCN2CCCC[C@H]12 [Compound 75, N2-(4-fluoro-3-(5-methyl-1H-tetrazol-1-yl)phenyl)-N4-(((1S,9aR)-octahydro-1H-quinolizin-1-yl)methyl)-5-methoxypyrimidine-2,4-diamine]
14 | < 30 | 0.0663 | Cc1nnnn1-c1cc(Nc2ncc(F)c(NC[C@@H]3CCCN4CCCC[C@H]34)n2)c(F)cc1C1CC1 [Compound 23, N2-(4-cyclopropyl-2-fluoro-5-(5-methyl-1H-tetrazol-1-yl)phenyl)-5-fluoro-N4-(((1S,9aR)-octahydro-1H-quinolizin-1-yl)methyl)pyrimidine-2,4-diamine]
15 | < 30 | 0.0225 | COc1cc(Nc2ncc(C#N)c(NC[C@@H]3CCCN4CCCC[C@H]34)n2)cc(-n2nnnc2C)c1 [Compound 115, 4-(((1S,9aR)-octahydro-1H-quinolizin-1-yl)methylamino)-2-(3-methoxy-5-(5-methyl-1H-tetrazol-1-yl)phenylamino)pyrimidine-5-carbonitrile]
16 | < 30 | 0.531 | COc1ccc(Nc2nccc(NC[C@@H]3CCCN4CCCC[C@H]34)n2)cc1-n1nnnc1C [Compound 51, N4-(((1S,9aR)-octahydro-1H-quinolizin-1-yl)methyl)-N2-(4-methoxy-3-(5-methyl-1H-tetrazol-1-yl)phenyl)pyrimidine-2,4-diamine]
17 | < 30 | 11 | Cc1ccc(Nc2ncc(N(C)C)c(NC[C@@H]3CCCN4CCCC[C@H]34)n2)cc1-n1cnnn1 [Compound 86, N4-(((1S,9aR)-octahydro-1H-quinolizin-1-yl)methyl)-N5,N5-dimethyl-N2-(4-methyl-3-(1H-tetrazol-1-yl)phenyl)pyrimidine-2,4,5-triamine]
18 | < 30 | 0.305 | Cn1nnn(-c2cc(Nc3ncc(C#N)c(NC[C@@H]4CCCN5CCCC[C@H]45)n3)c(F)cc2OC(C)(C)CO)c1=O [Compound 151, 2-((2-fluoro-4-((1-hydroxy-2-methylpropan-2-yl)oxy)-5-(4-methyl-5-oxo-4,5-dihydro-1H-tetrazol-1-yl)phenyl)amino)-4-((((1S,9aR)-octahydro-2H-quinolizin-1-yl)methyl)amino)pyrimidine-5-carbonitrile]
19 | < 30 | 3.92 | Cc1ccc(Nc2ncc(N(C)C)c(NC[C@@H]3CCCN4CCCC[C@H]34)n2)cc1C#N [Compound 93, 5-(4-(((1S,9aR)-octahydro-1H-quinolizin-1-yl)methylamino)-5-(dimethylamino)pyrimidin-2-ylamino)-2-methylbenzonitrile]
20 | < 30 | 4.63 | CC(O)COc1ccc(Nc2ncc(F)c(NC[C@@H]3CCCN4CCCC[C@H]34)n2)cc1C#N (stereo partly drawn) [Compound 145, 5-((5-fluoro-4-((((1S,9aR)-octahydro-2H-quinolizin-1-yl)methyl)amino)pyrimidin-2-yl)amino)-2-(2-hydroxypropoxy)benzonitrile]
